The source of these data is ChEMBL document CHEMBL5365428, “Alkyne as a Latent Warhead to Covalently Target SARS-CoV-2 Main Protease” (J Med Chem, 2023).

Calls of active or inactive are those of the source. The calls are words filed in the database; no cut-off is given here.

This test has as its system Replicase polyprotein 1ab (Severe acute respiratory syndrome coronavirus 2), P0DTD1 [C145A]. Briefly: Binding affinity to recombinant hexa-His tagged SARS-COV2 main protease C145A mutant expressed in HEK293T cells by in-gel fluorescence analysis. In kind it is cell-based.

On to `C#CC[C@H](NC(=O)C(F)(F)F)C(=O)N1C[C@H]2[C@@H]([C@H]1C(=O)N[C@H](C#C)C[C@@H]1CCNC1=O)C2(C)C`, for which the outcome was inactive.
